Results: US20080255055A1, “Use of Derivatives of Dipeptides for the Manufacture of a Medicament for the Treamtent of Microbial Infections” (NEOBIOTICS AB, priority 2004, published 2008)
In brackets after ≈: the same amount, converted by molar mass. Non-standard residues stand in square brackets, D forms with d. dPhg = N[C@@H](C(=O)O)c1ccccc1; Phg = N[C@H](C(=O)O)c1ccccc1; code Z = not defined here; Orn = NCCC[C@H](N)C(=O)O; Mpa = O=C(O)CCS

Legend:
[1] = tested on: bacteria; assay: Anti-bacterial activity (tables of particularly interesting compounds); format: cell-based; parameters: key: + indicates that the compound show effects
[2] = tested on: Streptococcus: group C; assay: Agar well diffusion; settings: 40 ul of 1 mg/ml in DMSO
[3] = tested on: Staphylococci incl. multi-resistant MRSA; assay: Agar well diffusion; settings: for antibacterial effect, Staphylococci incl. multi-resistant MRSA: agar well diffusion, 40 ul of 1 mg/ml in DMSO; for growth inhibition of approximately 100 strain of MRSA: clinical isolates, several with additional antibiotic resistance markers
[4] = tested on: S. pneumoniae; assay: Agar well diffusion; settings: 40 ul of 1 mg/ml in DMSO
[5] = tested on: Streptococcus: group B; assay: Agar well diffusion; settings: 40 ul of 1 mg/ml in DMSO
[6] = tested on: CNS incl. resistant and multiresistant MRSE; assay: Agar well diffusion; settings: 40 ul of 1 mg/ml in DMSO
[7] = tested on: Streptococcus: group A; assay: Agar well diffusion; settings: 40 ul of 1 mg/ml in DMSO
[8] = tested on: E. coli and other Gram-negatives; assay: Agar well diffusion; settings: for antibacterial effect, E. coli and other Gram-negatives: agar well diffusion, 40 ul of 1 mg/ml in DMSO
[9] = tested on: L. monocytogenes; assay: Agar well diffusion; settings: 40 ul of 1 mg/ml in DMSO
[10] = tested on: α-haemolytic Streptococci; assay: Agar well diffusion; settings: 40 ul of 1 mg/ml in DMSO
[11] = tested on: Aspergillus niger ATCC 16404; assay: Antifungal MIC in Sabouraud broth; format: cell-based; settings: 25° C., 7 days
Experimental: (§1) The minimal inhibitory concentration (MIC) was determined using a method with Sabouraud broth (Becton Dickinson) and an initial inoculum 10^3-10^4 cfu/ml. Polypropylene 96-well plates (Nunc) were incubated at 25° C. for 48 h (for Candida albicans ATCC 10231) or 7 days (for Aspergillus niger ATCC 16404). The MIC was taken as the lowest drug concentration at which noticeable growth was inhibited. The experiments were performed in duplicate.

[12] = tested on: Candida albicans ATCC 10231; assay: Antifungal MIC in Sabouraud broth; format: cell-based; settings: 25° C., 48 h
Experimental: as §1

[13] = tested on: Streptococcus: group G; assay: Agar well diffusion; settings: 40 ul of 1 mg/ml in DMSO
[14] = tested on: S. aureus; assay: MIC by broth dilution; format: cell-based; settings: growth media without DMSO, solubility problems; true MIC might be lower
Experimental: (§2) The in vitro antibacterial activity of drugs is commonly estimated by testing their minimal inhibitory (MIC) and bactericidal (MBC) concentrations.
(§3) MIC/MBC determinations were performed by broth dilution according to established procedures, well known for a person skilled in the art.

[15] = tested on: labial herpes; assay: Topical application to beginning labial herpes outbreak; format: in vivo; settings: Cp1 in softening cream, 0.2 ml solution (0.1 g/l) on the lip of a person; performed twice
[16] = Solubility; format: physicochemical
[17] = tested on: GAS; assay: MIC by broth dilution; format: cell-based, group A Streptococci; settings: growth media without DMSO, solubility problems; true MIC might be lower
Experimental: as §2, §3

[18] = tested on: lethal strept challenge; assay: Protection against lethal strept challenge; format: in vivo; settings: mouse
[19] = tested on: poliovirus type 1; format: cell-based; settings: GMK AH 1 cells, 1 PFU/cell, 48 hours; Cp1 0.4 mM in 1% DMSO
[20] = tested on: HSV-1 F; assay: Virus inhibition analysis and plaque counting test in GMK AH 1 cells; format: cell-based, Herpes Simplex Virus; settings: 10 PFU/cell, 48 hours, Cp1 0.4 mM in 1% DMSO, Acyclovir 1.0 mM
[21] = tested on: cysteine proteases; assay: Protease inhibitory activity; format: biochemical

cyclo([Phg]RLV[Phg]RLV)
Activity Anti-bacterial [1]: +

cyclo(F[Orn]LVF[Orn]LV)
Activity Anti-bacterial [1]: +

cyclo(FRLVF[Orn]LV)
Activity Anti-bacterial [1]: +

cyclo(Tyr-Arg-Leu-Val-Tyr-Arg-Leu-Val) (YRLVYRLV; cyclic; printed: Tyr-Arg-Leu-Val-Tyr-Arg-Leu-Val)
Activity Anti-bacterial [1]: +

Z-Arg-Leu-Val-cinnamoylamide
Activity Anti-bacterial [1]: +

Mpa-Phe-Arg-Leu-Val-Phe-Cys-NH2 ([Mpa]FRLVFC-NH2; cysteine pairing not given here)
Activity Anti-bacterial [1]: +

cyclo([dY]RLV[dY]RLV)
Activity Anti-bacterial [1]: +

cyclo(Phe-Arg-Leu-Val-Phe-Arg-Leu-Val) (FRLVFRLV; cyclic; printed: Phe-Arg-Leu-Val-Phe-Arg-Leu-Val)
Activity Anti-bacterial [1]: +

CC(=O)NC(Cc1ccccc1)C(=O)NCC(NC(=O)C(CC(C)C)NC(=O)C(CCCNC(=N)N)NC(=O)OCc1ccccc1)C(C)C (stereo not shown) [[AcPhe^5]Cp1]
antibacterial effect, Streptococcus: group C [2]: +
antibacterial effect, Staphylococci incl. multi-resistant MRSA [3]: +
growth inhibition of approximately 100 strain of MRSA [3]: strongly inhibited in their growth
antibacterial effect, S. pneumoniae [4]: +
antibacterial effect, Streptococcus: group B [5]: +
antibacterial effect, CNS incl. resistant and multiresistant MRSE [6]: +
antibacterial effect, Streptococcus: group A [7]: +
antibacterial effect, E. coli and other Gram-negatives [8]: −
antibacterial effect, L. monocytogenes [9]: +
antibacterial effect, α-haemolytic Streptococci [10]: −
MIC Aspergillus niger ATCC 16404 [11]: 256 µg/mL (≈ 368 µM)
MIC Candida albicans ATCC 10231 [12]: 512 µg/mL (≈ 737 µM)
antibacterial effect, Streptococcus: group G [13]: +

Z-Arg-Leu-Val-Phe-NH2 ({code Z}-RLVF-NH2; reading uncertain; also: printed as Z-Arg-Leu-Val-Phe-NH2)
Activity Anti-bacterial [1]: +

CC(C)CC(NC(=O)C(CCCN=C(N)N)NC(=O)OCc1ccccc1)C(=O)N[C@H](CNC(=O)/C=C/c1ccccc1)C(C)C (stereo in doubt) [Cp1, (2S)-2-[(N^α-Benzyloxycarbonyl-arginyl-leucyl)-amino]-1-trans-cinnamoylamino-3-methylbutane]
antibacterial effect, Streptococcus: group C [2]: +
antibacterial effect, Staphylococci incl. multi-resistant MRSA [3]: +
growth inhibition of approximately 100 strain of MRSA [3]: strongly inhibited in their growth
antibacterial effect, S. pneumoniae [4]: +
antibacterial effect, Streptococcus: group B [5]: +
antibacterial effect, CNS incl. resistant and multiresistant MRSE [6]: +
antibacterial effect, Streptococcus: group A [7]: +
MIC for S. aureus [14]: approximately 16 mg/L
activity against gram-negative bacteria [8]: low or no activity
antibacterial effect, E. coli and other Gram-negatives [8]: −
antibacterial effect, L. monocytogenes [9]: +
antibacterial effect, α-haemolytic Streptococci [10]: −
time after which symptoms of beginning labial herpes outbreak was gone [15]: Cp1 was added to a softening cream and 0.2 ml solution (0.1 g/l) was applied to an area of a beginning labial herpes outbreak on the lip of a person. After 3-4 hours the symptoms was gone. The experiment was performed twice.
solubility in DMSO ([16]; DMSO): soluble in DMSO to high concentrations
solubility in water ([16]; water): less soluble in water
MIC for GAS [17]: approximately 16 mg/L
protective capacity for lethal strept challenge [18]: strong protective capacity
Polio plaques [19]: 2.6 × 10^5
HSV-1 plaques [20]: 1.0 × 10^3
MIC Aspergillus niger ATCC 16404 [11]: 64 µg/mL (≈ 101 µM)
MIC Candida albicans ATCC 10231 [12]: 32 µg/ml
antibacterial effect, Streptococcus: group G [13]: +
protease inhibitory activity [21]: devoid of any detectable protease inhibitory activity

cyclo([dPhg]RLV[dPhg]RLV)
Activity Anti-bacterial [1]: +
